Experimental data from patent publication US11660307B2, “Methods for treating SARS CoV-2 infections” (Gilead Sciences, Inc., priority 2020, dated 2023).
Where two headings read alike, the source gives them in different places.

Legend:
[1] = test system: SARS-CoV-2; experiment: microbe, parasite or virus in culture; type: cell-based; details: Severe acute respiratory syndrome coronavirus 2, 48 h; read-out: SARS-CoV-2 (2-day) EC50
[2] = A549 cytotoxicity analysis (CellTiter-Glo); type: cell-based; details: human
Experimental: The cytotoxicity of compounds was determined in A549 cells in the following manner. Compounds (200 nL) were spotted onto 384-well Grenier plates prior to seeding 5000 A549 cells/well in a volume of 40 μL culture medium. The plates were incubated at 37° C. for 48 hours with 5% CO2. On day 2, 40 μL of CellTiter-Glo (Promega) was added and mixed 5 times. Plates were read for luminescence on an Envision (PerkinElmer) and the CC50 (compound concentration for reducing 50% of luminescence signal as a measure of cell viability) were calculated using a nonlinear regression model (four parameters).

[3] = test system: 2019-nCoV; experiment: Intravenous Compound 32 against 2019-nCoV in rhesus monkeys; type: in vivo; details: 10 mg/kg IV once daily, vs vehicle
[4] = A549 cells, 48 hours, CellTiter-Glo, read-out: A549 Cytotoxicity (2-day) CC50

| Structure (SMILES) | EC50 [1] | CC50 at 48 h [2, 4] | CC50 at 48 h [2] | cumulative clinical scores [3] | disease symptoms [3] |
| --- | --- | --- | --- | --- | --- |
| CCC(CC)COC(=O)[C@H](C)N[P@](=O)(OC[C@H]1O[C@@](C#N)(c2ccc3c(N)ncnn23)[C@H](O)[C@@H]1O)Oc1ccccc1 [drawing 141] | 135 ± 20 nM | > 25200 nM | – | – | – |
| N#C[C@@]1(c2ccc3c(N)ncnn23)O[C@H](CO)[C@@H](O)[C@H]1O | 869 ± 289 nM | – | > 50000 nM | – | – |
| CCC(CC)COC(=O)[C@H](C)N[P@@](=O)(OC[C@H]1O[C@@](C#N)(c2ccc3c(N)ncnn23)[C@H](O)[C@@H]1O)Oc1ccccc1 | 272 ± 75 nM | 17700 nM | – | – | – |
| CCC(CC)COC(=O)[C@H](C)N[P@](=O)(OC[C@H]1O[C@@](C#N)(c2ccc3c(N)ncnn23)[C@H](O)[C@@H]1O)Oc1ccccc1 [Compound 32, (S)-2-ethylbutyl 2-(((S)-(((2R,3S,4R,5R)-5-(4-aminopyrrolo[2,1-f][1,2,4]triazin-7-yl)-5-cyano-3,4-dihydroxytetrahydrofuran-2-yl)methoxy)(phenoxy)phosphoryl)amino)propanoate] | – | – | – | notably higher in vehicle-treated animals | less pronounced |
